Data on 31 compounds can be found in patent US11339136B2 (Novartis AG, priority 2016, dated 2022).

This assay has as its target T1, hNLRP3 (Homo sapiens, UniProt Q96P20).
T1 construct: THP-1 cells were purchased from the American Type Culture Collection; host or cells: THP-1 cells, PMA-differentiated
In words: IL-1β production in PMA-differentiated THP-1 cells stimulated with gramicidin. It counts as cell-based. Particulars: gramicidin 5 μM, IL-1β in supernatant, Table 2. Here is the method:
Bioassay: IL-1β Production in PMA-Differentiated THP-1 Cells Stimulated with Gramicidin. Procedure 1:
Cell culture—THP-1 cells were purchased from the American Type Culture Collection and sub-cultured according to instructions from the supplier. Prior to experiments, cells were cultured in RPMI 1640 containing 10% heat inactivated FBS, penicillin (100 units/ml) and streptomycin (100 μg/ml), and maintained in log phase prior to experimental setup. Prior to the experiment THP-1 were treated with PMA (Phorbol 12-myristate 13-acetate) (10 μg/ml) for 24 hours. The day of the experiment the media was removed and attaching cells were treated with trypsin for 2 minutes, cells were then collected, washed with PBS (phosphate buffer saline), spin down, resuspended in 2% heat inactivated FBS with RPMI at a concentration of 1×10^6 cells/ml, and 100 ul was plated in a 96 well plate. Cells were incubated with compounds for 1 hours and then stimulated with Gramicidin (5 μM) (Enzo) for 2 hours. Cell free supernatant was collected and the production of IL-1β was evaluated by ELISA. Compounds were dissolved in dimethyl sulfoxide (DMSO) and added to the culture medium to achieve desired concentration (e.g. 100, 30, 10, 3, 1, 0.3 or 0.1 μM). A vehicle only control was run concurrently with each experiment. Final DMSO concentration was 1%.
THP-1 cells were purchased from the American Type Culture Collection and sub-cultured according to instructions from the supplier. Prior to experiments, cells were cultured in complete RPMI 1640 (containing 10% heat inactivated FBS, penicillin (100 units/ml) and streptomycin (100 μg/ml)), and maintained in log phase prior to experimental setup. Prior to the experiment THP-1 were treated with PMA (Phorbol 12-myristate 13-acetate) (20 ng/ml) for 16-18 hours. On the day of the experiment the media was removed and adherent cells were detached with trypsin for 5 minutes. Cells were then harvested, washed with complete RPMI 1640, spun down, resuspended in RPMI 1640 (containing 2% heat inactivated FBS, penicillin (100 units/ml) and streptomycin (100 μg/ml). The cells were plated in a 384-well plate at a density of 50,000 cells/well (final assay volume 50 μl). Compounds were dissolved in dimethyl sulfoxide (DMSO) and added to the culture medium to achieve desired concentration (e.g. 100, 33, 11, 3.7, 1.2, 0.41, 0.14, 0.046, 0.015, 0.0051, 0.0017 μM). Cells were incubated with compounds for 1 hour and then stimulated with gramicidin (5 μM) (Enzo) for 2 hours. Cell free supernatant was collected and the production of IL-1β was evaluated by HTRF (cisbio). A vehicle only control was run concurrently with each experiment. Final DMSO concentration was 0.38%.

T1 sequence (Q96P20 whole entry): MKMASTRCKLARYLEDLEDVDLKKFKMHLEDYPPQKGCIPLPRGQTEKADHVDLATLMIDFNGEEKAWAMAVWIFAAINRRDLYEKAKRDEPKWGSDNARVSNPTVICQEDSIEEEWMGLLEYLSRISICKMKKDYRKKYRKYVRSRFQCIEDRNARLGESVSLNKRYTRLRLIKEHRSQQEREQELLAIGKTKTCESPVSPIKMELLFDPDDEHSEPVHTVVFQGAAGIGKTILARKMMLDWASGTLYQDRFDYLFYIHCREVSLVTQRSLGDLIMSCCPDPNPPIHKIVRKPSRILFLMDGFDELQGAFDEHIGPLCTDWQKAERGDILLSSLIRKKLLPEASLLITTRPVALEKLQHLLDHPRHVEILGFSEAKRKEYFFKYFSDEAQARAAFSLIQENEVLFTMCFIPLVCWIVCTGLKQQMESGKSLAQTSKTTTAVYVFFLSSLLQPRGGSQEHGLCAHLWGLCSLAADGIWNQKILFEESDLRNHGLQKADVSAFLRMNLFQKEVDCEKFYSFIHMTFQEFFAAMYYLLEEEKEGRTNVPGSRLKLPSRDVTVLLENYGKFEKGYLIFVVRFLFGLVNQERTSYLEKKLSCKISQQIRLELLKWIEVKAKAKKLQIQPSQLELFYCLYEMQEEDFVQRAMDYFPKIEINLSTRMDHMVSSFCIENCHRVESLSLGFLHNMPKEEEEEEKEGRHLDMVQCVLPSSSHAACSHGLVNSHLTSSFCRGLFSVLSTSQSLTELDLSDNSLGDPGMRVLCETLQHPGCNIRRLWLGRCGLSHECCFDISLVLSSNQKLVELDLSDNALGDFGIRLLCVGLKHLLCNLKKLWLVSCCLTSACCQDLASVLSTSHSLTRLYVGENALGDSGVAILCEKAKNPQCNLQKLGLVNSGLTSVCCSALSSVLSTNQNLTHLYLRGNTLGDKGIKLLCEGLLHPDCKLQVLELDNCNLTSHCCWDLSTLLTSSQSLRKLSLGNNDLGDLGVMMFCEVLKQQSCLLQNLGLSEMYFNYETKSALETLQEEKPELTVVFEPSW

The IC50 is the concentration that gives 50% inhibition. Compound `Cc1sc(S(=O)(=O)NC(=O)Nc2c(C(C)C)ccc(Cl)c2C(C)C)cc1C(C)(C)O` [Compound 153, N-(3-chloro-2,6-diisopropylphenyl-carbamoyl)-4-(2-hydroxypropan-2-yl)-5-methylthiophene-2-sulfonamide] had an IC50 of 5000 to 15000 nM.
`CC(C)c1cc(C#N)cc(C(C)C)c1NC(=O)NS(=O)(=O)c1cnc(C(C)(C)O)s1` [Compound 267] had an IC50 of 1000 to 5000 nM.
Turning to `Cc1nc(S(=O)(=O)NC(=O)Nc2c(C(C)C)cc(F)cc2C(C)C)sc1C(C)(C)O` [Compound 152, N-(4-fluoro-2,6-diisopropylphenylcarbamoyl)-5-(2-hydroxypropan-2-yl)-4-methylthiazole-2-sulfonamide], the IC50 fell in the range of 5000 to 15000 nM.
Consider `CC(C)c1ccc(Cl)c(C(C)C)c1NC(=O)NS(=O)(=O)c1nc(C(C)(C)O)cs1` [Compound 144, N-(3-chloro-2,6-diisopropylphenylcarbamoyl)-4-(2-hydroxypropan-2-yl) thiazole-2-sulfonamide], for which the IC50 lay in the range of 1000 to 5000 nM.
The value for `CC(C)c1ccc(F)c(C(C)C)c1NC(=O)NS(=O)(=O)c1cc(C2(O)CC2)co1` [Compound 212] was < 1000 nM; that for `CC(C)c1ccc(Cl)c(C(C)C)c1NC(=O)NS(=O)(=O)c1ncc(C(C)(C)O)s1` [Compound 179, N-(3-chloro-2,6-diisopropylphenylcarbamoyl)-5-(2-hydroxypropan-2-yl)thiazole-2-sulfonamide] was 1000 to 5000 nM; that for `CC(C)c1cc(C#N)cc(C(C)C)c1NC(=O)NS(=O)(=O)c1ncc(C(C)(C)O)s1` [Compound 226, N-(4-cyano-2,6-diisopropylphenyl-carbamoyl)-5-(2-hydroxypropan-2-yl)thiazole-2-sulfonamide] was < 1000 nM.
The value for `CC(C)c1ccc2c(c1NC(=O)NS(=O)(=O)c1cc(C(C)(C)O)cs1)CCC2` [Compound 175, 4-(2-hydroxypropan-2-yl)-N-(5-isopropyl-2,3-dihydro-1H-inden-4-ylcarbamoyl) thiophene-2-sulfonamide] was 15000 to 35000 nM; that for `CC(C)c1cc(Cl)cc(C(C)C)c1NC(=O)NS(=O)(=O)c1cc(C(C)(C)O)c(Cl)s1` [Compound 254, 5-chloro-N-(4-chloro-2,6-diisopropylphenyl-carbamoyl)-4-(2-hydroxypropan-2-yl)thiophene-2-sulfonamide] was < 1000 nM; that for `CC(C)(O)c1csc(S(=O)(=O)NC(=O)Nc2c3c(c(C#N)c4c2CCC4)CCC3)c1` [Compound 224, N-(8-cyano-1,2,3,5,6,7-hexahydros-indacen-4-ylcarbamoyl)-4-(2-hydroxypropan-2-yl)thiophene-2-sulfonamide] was < 1000 nM.
On to `Cc1sc(S(=O)(=O)NC(=O)Nc2c(C(C)C)ccc(C#N)c2C(C)C)cc1C(C)(C)O` [Compound 264, N-(3-cyano-2,6-diisopropylphenylcarbamoyl)-4-(2-hydroxypropan-2-yl)-5-methylthiophene-2-sulfonamide], for which the IC50 lay within 5000 to 15000 nM.
The value for `CC(C)(O)c1ncsc1S(=O)(=O)NC(=O)Nc1c2c(c(Cl)c3c1CCC3)CCC2` [Compound 273] was 5000 to 15000 nM.
On to `CC(C)c1ccc(F)c(C(C)C)c1NC(=O)NS(=O)(=O)c1cc(C(C)(C)O)c(Cl)s1` [Compound 250, 5-chloro-N-(3-fluoro-2,6-diisopropylphenylcarbamoyl)-4-(2-hydroxypropan-2-yl)thiophene-2-sulfonamide], for which the IC50 was 1000 to 5000 nM.
For `CC(C)c1ccc(F)c(C(C)C)c1NC(=O)NS(=O)(=O)c1cc(C2(O)CC2)cs1` [Compound 218, N-(3-fluoro-2,6-diisopropylphenyl-carbamoyl)-4-(1-hydroxycyclo-propyl)thiophene-2-sulfonamide], the IC50 was < 1000 nM.
Under `CCc1cccc(CC)c1NC(=O)NS(=O)(=O)c1ncc(C(C)(C)O)s1` [Compound 172, N-(2,6-diethylphenylcarbamoyl)-5-(2-hydroxypropan-2-yl)thiazole-2-sulfonamide] stands 1000 to 5000 nM; under `CC(C)c1cc(C#N)cc(C(C)C)c1NC(=O)NS(=O)(=O)c1cc(C(C)(C)O)cs1` [Compound 217, N-(4-cyano-2,6-diisopropylphenyl-carbamoyl)-4-(2-hydroxypropan-2-yl)thiophene-2-sulfonamide], < 1000 nM; under `O=C(Nc1c2c(c(F)c3c1CCC3)CCC2)NS(=O)(=O)c1ccc(C2(O)CC2)s1` [Compound 200], < 1000 nM.
`CCc1ccc2c(c1NC(=O)NS(=O)(=O)c1ncc(C(C)(C)O)s1)CCC2` [Compound 165, N-(5-ethyl-2,3-dihydro-1H-inden-4-ylcarbamoyl)-5-(2-hydroxypropan-2-yl) thiazole-2-sulfonamide] gave an IC50 of 1000 to 5000 nM.
Regarding `Cc1sc(S(=O)(=O)NC(=O)Nc2c(C(C)C)cc(C#N)cc2C(C)C)cc1C(C)(C)O` [Compound 162, N-(4-cyano-2,6-diisopropylphenyl-carbamoyl)-4-(2-hydroxypropan-2-yl)-5-methylthiophene-2-sulfonamide], the IC50 is < 1000 nM.
With `CCc1cc(F)cc(CC)c1NC(=O)NS(=O)(=O)c1cc(C(C)(C)O)cs1` [Compound 161, N-(2,6-diethyl-4-fluorophenylcarbamoyl)-4-(2-hydroxypropan-2-yl)thiophene-2-sulfonamide], the IC50 was in the range of 1000 to 5000 nM.
For `O=C(Nc1c2c(c(F)c3c1CCC3)CCC2)NS(=O)(=O)c1cc(C2(O)CC2)co1` [Compound 207, N-(8-fluoro-1,2,3,5,6,7-hexahydros-indacen-4-ylcarbamoyl)-4-(1-hydroxycyclo-propyl)furan-2-sulfonamide], the IC50 is < 1000 nM.
Consider `CC(C)c1cccc(C(C)C)c1NC(=O)NS(=O)(=O)c1cc(C2(O)CC2)cs1` [Compound 230, N-(2,6-diisopropylphenyl-carbamoyl)-4-(1-hydroxycyclo-propyl)thiophene-2-sulfonamide], for which the IC50 was < 1000 nM.
The value for `CC(C)c1cc(Cl)cc(C(C)C)c1NC(=O)NS(=O)(=O)c1cc(C2(O)CC2)cs1` [Compound 229, N-(4-chloro-2,6-diisopropylphenyl-carbamoyl)-4-(1-hydroxycyclo-propyl)thiophene-2-sulfonamide] was < 1000 nM.
The value for `O=C(Nc1c2c(cc3c1CCC3)CCC2)NS(=O)(=O)c1cc(C2(O)CC2)cs1` [Compound 216] was < 1000 nM.
The value for `CC(C)c1ccc(F)c(C(C)C)c1NC(=O)NS(=O)(=O)c1cc(C(C)(C)O)cs1` [Compound 228, N-(3-fluoro-2,6-diisopropylphenyl-carbamoyl)-4-(2-hydroxypropan-2-yl)thiophene-2-sulfonamide] was < 1000 nM; that for `O=C(Nc1c2c(c(Cl)c3c1CCC3)CCC2)NS(=O)(=O)c1ccc(C2(O)CC2)s1` [Compound 199, N-(8-chloro-1,2,3,5,6,7-hexahydros-indacen-4-ylcarbamoyl)-5-(1-hydroxycyclopropyl) thiophene-2-sulfonamide] was 1000 to 5000 nM; that for `CC(C)c1cc(F)cc(C(C)C)c1NC(=O)NS(=O)(=O)c1cc(C(C)(C)O)cs1` [Compound 211, N-(4-fluoro-2,6-diisopropylphenyl-carbamoyl)-4-(2-hydroxypropan-2-yl)thiophene-2-sulfonamide] was < 1000 nM.
`CC(C)c1cc(C#N)cc(C(C)C)c1NC(=O)NS(=O)(=O)c1nc(C(C)(C)O)cs1` [Compound 146, N-(4-cyano-2,6-diisopropylphenylcarbamoyl)-4-(2-hydroxypropan-2-yl)thiazole-2-sulfonamide]: the IC50 was in the range of 1000 to 5000 nM.
Under `CC(C)(O)c1cnc(S(=O)(=O)NC(=O)Nc2c3c(c(C#N)c4c2CCC4)CCC3)s1` [Compound 220, N-(8-cyano-1,2,3,5,6,7-hexahydros-indacen-4-ylcarbamoyl)-5-(2-hydroxypropan-2-yl)thiazole-2-sulfonamide] stands 1000 to 5000 nM; under `CC(C)c1ccc(F)c(C(C)C)c1NC(=O)NS(=O)(=O)c1ncc(C2(O)CCCC2)s1` [Compound 168, N-(3-fluoro-2,6-diisopropylphenylcarbamoyl)-5-(1-hydroxycyclopentyl) thiazole-2-sulfonamide], 5000 to 15000 nM.
The value for `CC(C)c1ccc(F)c(C(C)C)c1NC(=O)NS(=O)(=O)c1ncc(C2(O)CCC2)s1` [Compound 169, N-(3-fluoro-2,6-diisopropylphenylcarbamoyl)-5-(1-hydroxycyclobutyl) thiazole-2-sulfonamide] was 5000 to 15000 nM.
